Data reported in US6544542B1, “Fat emulsions for inhalational administration” (Nippon Shinyaku Co., Ltd., priority 1998, dated 2003).

Test: Test Example 7: influence of the solubilization-effective surfactant concentration on nebulizer sprayability
Assay type: physicochemical

nebulizer sprayability, CA | nebulizer sprayability, Dexamethasone palmitate | nebulizer sprayability, Guaiazulene | Substance
Infeasible |  |  | Triton X100
Infeasible | Infeasible | Infeasible | Tween-80
